Data reported in US20080004296A1, “Organic Compounds” (priority 2004, published 2008).

System: tobacco-smoke-enhanced cough response to 0.3 M citric acid
Assay: Citric acid-induced cough and Penh in tobacco smoke-exposed conscious guinea-pigs (plethysmograph)
Type: in vivo, guinea-pig
Settings: 1 hour prior to citric acid challenge, mean±s.e. mean; for percentage inhibition of tobacco-smoke-enhanced cough: vs vehicle
Experimental: Male Dunkin-Hartley guinea-pigs (350-550 g) are exposed to either air or tobacco smoke generated by four research cigarettes, (2R4F; Kentucky, USA) for a 3 second puff every 30 sec, for 2 days. At 24 hours after the last exposure conscious, unrestrained animals are placed in a plethysmograph chamber (Buxco, USA) and challenged with an aerosol of 0.3 M citric acid in 0.9% saline for 10 minutes. Cough and Penh AUC (measure of bronchoconstriction) are recorded during the 10 minute exposure and for a further 10 minutes after exposure using the method described in El-Hashim A. et al. Pulmonary Pharmacology & Therapeutics 17(1) (2004) pages 11-18.
To evaluate the effects of 2-(2-Hydroxy-ethylcarbamoyloxymethyl)-5,7-dimethyl-3-(2-methylsulfamoyl-phenyl)-4-oxo-3,4-dihydro-quinazoline-6-carboxylic acid ethyl ester on the enhanced cough response, animals are dosed subcutaneously with the compound (0.3-10 mg/kg, n=3-10) or vehicle (3:1 PEG200:saline, n=10) at 1 hour prior to citric acid challenge. The percentage inhibition of the cough response following compound administration compared with vehicle administration in tobacco smoke-exposed animals is determined. Data are expressed as mean±s.e. mean and significance is defined as p<0.05 (ANOVA & Dunnett's multiple comparison test).

[1] = 3 mg/kg subcutaneously, significant

Question: With `CCOC(=O)c1c(C)cc2nc(COC(=O)NCCO)n(-c3ccccc3S(=O)(=O)NC)c(=O)c2c1C` [2-(2-Hydroxy-ethylcarbamoyloxy-methyl)-5,7-dimethyl-3-(2-methylsulfamoyl-phenyl)-4-oxo-3,4-dihydro-quinazoline-6-carboxylic acid ethyl ester] as the compound, how does the “inhibition of baseline Penh value (measure of bronchoconstriction)” value (shortened to “inhibition of baseline Penh value”) (0.3 mg/kg subcutaneously) read?
Answer: 48±17%

Question: What about the “percentage inhibition of tobacco-smoke-enhanced cough” value (shortened to “percentage inhibition”) (0.3 mg/kg subcutaneously) of the same compound?
Answer: 18±14%

Question: And the “inhibition of baseline Penh value” value (1 mg/kg subcutaneously)?
Answer: 55±19%

Question: What about the “percentage inhibition” value (1 mg/kg subcutaneously, significant) of the same compound?
Answer: 49±17%

Question: And the “inhibition of baseline Penh value” value [1]?
Answer: 77±10%

Question: What about the “percentage inhibition” value [1] of the same compound?
Answer: 80±13%

Question: What about the “inhibition of baseline Penh value” value (10 mg/kg subcutaneously) of the same compound?
Answer: 86±2%

Question: And the “percentage inhibition” value (10 mg/kg subcutaneously, significant)?
Answer: 100±0%
